Columns and labels:
Rif^R APEC O78 = assay: Efficacy of QSIs in APEC-infected chickens (oral gavage pilot); type: in vivo, Escherichia coli; conditions: Table S1, oral gavage pilot
Protocol: The chicken experiment was carried out using 1-day-old broiler chickens (Mayer Hatchery, OH, USA). Feed and water were given ad libitum. Chickens (n = 6/group) were administered with the QSIs (QSI-1, QSI-2, QSI-5 − 8, QSI-10, ChemBridge, San Diego, CA); previously designated as C1, C2, C5, C6, C7, C8, C10 ([17]) using oral gavage. These compounds were selected based on their high efficacy in in vitro studies and the doses correspond to 30X of the initial in vitro screening concentration ([17]). The QSIs were suspended in dimethyl sulfoxide (DMSO; used as a vehicle) and administered once daily for 5 successive days (starting from day 4 to day 8). The first dose was administered 1 day before the challenge, followed by the second dose on the challenge day (2 h before challenge), followed by three additional doses on subsequent days. Feeders were removed 1 h prior to the treatment and replaced 1 h after the treatment. Chickens were challenged subcutaneously (s/c) on day 5 with Rif^R APEC O78 (1 × 10^7 CFU/bird) in PBS using syringe (27 gauge, 0.5 in.). The challenge dose, which […], was chosen based on preliminary experiments conducted with different infection routes (subcutaneous s/c, intra-tracheal and intra-airsacs) and different doses (10^6, 10^7, and 10^8 CFU/chicken). […] Therefore, we selected this challenge dose and route for evaluation of QSIs in chickens ([34]). The positive (PC; infected with APEC O78 and DMSO treated) and negative (NC; non-infected and non-treated) control groups were included.
Chickens were monitored for clinical signs for 8 DPI. Any chickens moribund during this period were humanely euthanized and necropsied to determine bacterial load in the internal organs (liver, heart, lung, and kidney). Internal organs were aseptically collected, weighed and suspended in 1× PBS, the amount of PBS added was adjusted based on the organ size to make a suspension, the organ size and amount of PBS added were included in the final calculation of the CFU. The samples were homogenized, serially diluted 10-fold, plated on MacConkey agar (Remel, CA, USA) containing 50 μg/mL rifampicin, and incubated at 37°C for 24 h to determine the CFU/g. Pathological lesions severity in internal organs (pericarditis, perihepatitis, airsacculitis, and lung congestion) was scored as described previously ([21], [59]). At 8 DPI, the remaining chickens were humanely euthanized and necropsied, lesions were scored, and the APEC load was quantified in internal organs as described above.

[1] = PK profile of QSI-5 and SDM in chicken plasma (LC-MS); type: in vivo, chickens
Protocol: The amount of QSI-5 and SDM in chicken plasma was measured using LC-MS. The optimized dose of QSI-5 (1 mg/L) and the therapeutic dose of SDM (495.323 mg/L) (0.05%) were administered orally as a single dose. Blood was collected individually from five chickens per group at different time points (0 h, 0.5 h, 1 h, 2 h, 4 h, 8 h, 12 h, 24 h) after administration of QSI-5 and SDM in vacutainer EDTA (10.8 mg) tubes (Becton, Dickinson, NJ, USA), blood was placed on ice for 1 h to clot, plasma was separated by centrifuging at 2,000 × g for 10 min at 4°C and stored at −80°C °C for LC-MS analysis. Plasma protein was precipitated by adding cold methanol and 10 μL (1 μg/mL) of an internal standard (IS) heavy-labeled phenylalanine (dissolved in 0.1% formic acid) was added to each 100 μL aliquot. The mixture was then incubated at −20°C for 30 min and centrifuged at 1300 × g for 25 min at 2°C. Sixty μL of the supernatant was pipetted into LC vials. For standard calibration, solutions of 0.0, 0.001, 0.005, 0.01, 0.05, 0.1, 0.5, 1, and 5 μg/mL of QSI-5 and SDM were prepared and 20 μL of each standard solution was added to 80 μL of cold methanol and IS as mentioned above. All samples were run by injecting 5 μL on an Agilent Poroshell 120 SB-C18 (2 × 100 mm in diameter, 2.7 μm particle sizes). The LC system (Thermo Fisher Scientific UltiMate 3000 HPLC) was used with solvent A (10 mM ammonium formate and 0.1% formic acid) and solvent B (methanol with a flow rate of 200 μL/min). The gradient was set to 2% B at 2 min, increased from 2% to 20% at 5 min, 40% at 7.5 min, and reached 90% after 9 min. The gradient was sustained at 90% B for 11 min and then decreased to 2% at 12 min and was held for equilibration until the run ended after 15 min. The mass spectrometer (Thermo Fisher Scientific Quantiva Triple Quadrupole) was set to multiple reactions monitoring mode (SRM) with a heated electrospray ionization source (ESI) in positive mode at 3.5 kV. Drug targets were monitored for QSI-5 at transitions 309.26→105.1 m/z and 309.26→203.15 m/z at 28 and 20 V collision energy, respectively, and for SDM at transitions 311.11→156.11 m/z and 311.11→245.07 m/z at 21 and 18 V CE. The analysis of plasma samples was performed in Campus Chemical Instrumentation Center, Mass Spectrometry and Proteomics Facility (CCIC, MS&P), The Ohio State University (https://live-ccic.pantheonsite.io/MSP).

[2] = based on the observations during dosing in drinking water
APEC = test system: APEC; design: method as in PMID 30270715; conditions: in vitro; cited from earlier work
[3] = single oral dose (QSI-5 1 mg/L, SDM 495.323 mg/L)

For `Cc1ccc(CN2CCN(CCCc3ccccc3)CC2)cc1` [QSI-5], the “Average lesion severity, Lung” value (Rif^R APEC O78; lesion score, PC 1.25) was 0.17, the “Average lesion severity, Liver” value (Rif^R APEC O78; lesion score, PC 1.75) was 0.33 and the “Average lesion severity, Airsac” value (Rif^R APEC O78; lesion score, PC 2.00) was 0.17. For the same compound, the “Average lesion severity, Heart” value (Rif^R APEC O78; lesion score, PC 2.25) was 0.33, the “Mortality rate % (Nr.)” value (Rif^R APEC O78; n = 6/group, 8 DPI, PC 66.6 (4/6)) was 0% and the “Average APEC load, Liver” value (Rif^R APEC O78; PC 5.95) was 0.72 Log CFU/g of tissue. For the same compound, the “Average APEC load, Heart” value (Rif^R APEC O78; PC 5.98) was 0.58 Log CFU/g of tissue, the “Average APEC load, Kidney” value (Rif^R APEC O78; PC 6.81) was 0.67 Log CFU/g of tissue and the “Average APEC load, Lung” value (Rif^R APEC O78; PC 6.83) was 0.75 Log CFU/g of tissue. For the same compound, the half-life ([1]; single oral dose) was “short half-life”, the “time by which excreted” value ([1]; single oral dose) was ≤ 24 HPT and the “maximum concentration in plasma (Cmax)” value [1, 3] was 0.76 ng/mL. The “time of peak concentration in plasma” value [1, 3] was 2 HPT, the “time at which absorbed / detected in blood” value ([1]; single oral dose (QSI-5 1 mg/L, SDM 495.323 mg/L), h posttreatment) was 0.5 HPT and the aqueous solubility [2] was “good aqueous solubility”. The “effect on the growth of APEC” value (APEC) was “does not affect the growth of APEC”.

From article PMC9241644, “Evaluation of Novel Quorum Sensing Inhibitors Targeting Auto-Inducer 2 (AI-2) for the Control of Avian Pathogenic Escherichia coli Infections in Chickens” (Microbiology Spectrum, 2022)
